Results on one compound are retold here after US11970496B1, “Pyrrolo[3,2-c]quinoline compounds as CK2 inhibitors” (KING FAISAL UNIVERSITY, priority 2023, dated 2024).

In one experiment the test system is MIAPaCa-2 (pancreas). Nature of the experiment: In vitro cytotoxic activity assay (MTT), MIAPaCa-2. Type of experiment: cell-based. As to conditions: Homo sapiens, MIA PaCa-2; MIAPaCa-2 cells, exposed for 96 hours; read-out: IC50, 50% inhibition of cell proliferation, MIAPaCa-2 (pancreas). How it is done: (§1) Compounds 1-12 were screened for their in vitro cytotoxic activity utilizing a 3-(4,5-dimethyl-thiazol-2-yl)-2,5-diphenyltetrazolium bromide (MTT) assay against selected cancer human cell lines consisting of PC3 (prostate), HCT116 (colon), A375 (melanoma), H1299 (lung), MIAPaCa-2 (pancreas), HL60 (leukemia), MCF7 (breast), MDA-MB-231 (breast) (T. Mosmann, J. Immunol. Meth., 1983, 65, 55-63). The cells were cultured at 37° C. in RMPI1640 medium supplemented with 10% fetal bovine serum, 50 IU/mL penicillin, and 50 μg/mL streptomycin in a 5% CO2 incubator. All cells were sub-cultured 3 times/week by trypsinisation. Viable cells were seeded and allowed to adhere for 12 h before a test drug was added in 96-well plates at an initial density of 1.0×10^5 cells/mL. Tumour cell lines were separately exposed to various concentrations of the tested compounds followed by incubation at a temperature of 37° C. during 96 h inside a medium of fresh RMPI 1640. Cells were subsequently incubated at 37° C. using MTT at 0.5 mg/mL during 4 h. After removal of supernatant, formazan crystals were dissolved in isopropanol and the optical density was measured at 570 nm. CX-4945 was used as a positive control.

A further experiment relates to H1299 (lung). Nature of the experiment: In vitro cytotoxic activity assay (MTT), H1299. Type of experiment: cell-based. As to conditions: Homo sapiens, NCI-H1299; H1299 cells, exposed for 96 hours; read-out: IC50, 50% inhibition of cell proliferation, H1299 (lung). How it is done: as §1
The next experiment concerns A375 (melanoma). Nature of the experiment: In vitro cytotoxic activity assay (MTT), A375. Type of experiment: cell-based. As to conditions: Homo sapiens, A-375; A375 cells, exposed for 96 hours; read-out: IC50, 50% inhibition of cell proliferation, A375 (melanoma). The method, then: as §1
The test system of the next experiment is PC3 (prostate). Kind of experiment: In vitro cytotoxic activity assay (MTT), PC3. Type of experiment: cell-based. As to conditions: Homo sapiens, PC-3; PC3 cells, exposed for 96 hours; read-out: IC50, 50% inhibition of cell proliferation, PC3 (prostate). The method, then:
as §1

In another experiment the test system is MCF7 (breast). Kind of experiment: In vitro cytotoxic activity assay (MTT), MCF7. As to conditions: Homo sapiens; MCF7 cells, exposed for 96 hours; read-out: IC50, 50% inhibition of cell proliferation, MCF7 (breast). Type of experiment: cell-based. The method, then: as §1
The subject of the next experiment is HL60 (leukemia). Kind of experiment: In vitro cytotoxic activity assay (MTT), HL60. The format is cell-based. The note with it: Homo sapiens, HL-60; HL60 cells, exposed for 96 hours; read-out: IC50, 50% inhibition of cell proliferation, HL60 (leukemia). How it is done: as §1
For experiment [1], the target named is T1, recombinant human CK2 (RRββ-holoenzyme) (Homo sapiens, UniProt P68400).
T1 construct: purchased Millipore
T1 sequence (P68400 whole entry): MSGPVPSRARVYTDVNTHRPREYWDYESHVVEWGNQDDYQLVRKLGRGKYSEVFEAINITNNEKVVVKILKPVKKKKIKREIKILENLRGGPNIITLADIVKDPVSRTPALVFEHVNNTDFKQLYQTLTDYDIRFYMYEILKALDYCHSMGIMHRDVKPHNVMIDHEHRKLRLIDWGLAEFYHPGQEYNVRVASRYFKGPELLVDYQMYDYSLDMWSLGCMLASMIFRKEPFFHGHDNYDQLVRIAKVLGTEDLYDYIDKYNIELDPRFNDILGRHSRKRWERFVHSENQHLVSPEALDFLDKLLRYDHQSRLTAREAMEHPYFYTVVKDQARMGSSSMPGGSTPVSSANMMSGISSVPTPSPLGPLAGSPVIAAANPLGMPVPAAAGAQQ
T1 sequence (P67870 whole entry partner): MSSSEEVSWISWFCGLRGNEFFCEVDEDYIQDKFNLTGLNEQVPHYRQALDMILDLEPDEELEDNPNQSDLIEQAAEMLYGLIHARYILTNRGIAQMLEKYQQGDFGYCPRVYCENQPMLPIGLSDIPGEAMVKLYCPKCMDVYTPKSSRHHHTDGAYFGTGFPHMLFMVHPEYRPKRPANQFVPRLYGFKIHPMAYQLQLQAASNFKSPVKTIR
Kind of experiment: CK2 Kinase Assay (33P-ATP, substrate peptide RRRDDDSDDD). Type of experiment: biochemical. As to conditions: final ATP concentration 15 μM, 10 min at 30° C.; read-out: protein kinase CK2 IC50. The method, then: CK2 Kinase Assay was conducted using the protocol as described in Pierre F. et al; J. Med. Chem. 2011, 54, 635-654. The tested compounds in aqueous solution were added at a volume of 10 μL to a reaction mixture comprising 10 μL of assay dilution buffer (ADB; 20 mM MOPS, pH 7.2, 25 mM (3-glycerol phosphate, 5 mM EGTA, 1 mM sodium orthovanadate, and 1 mM dithiothreitol), 10 μL of substrate peptide (RRRDDDSDDD, dissolved in ADB at a concentration of 1 mM), 10 μL of recombinant human CK2 (RRββ-holoenzyme, 25 ng dissolved in ADB; Millipore). Reactions were initiated by the addition of 10 μL of ATP solution (90% 75 mMMgCl2, 75 μM ATP (final ATP concentration: 15 μM) dissolved in ADB; 10% [γ-33P] ATP (stock 1 mCi/100 μL; 3000 Ci/mmol (Perkin-Elmer) and maintained for 10 min at 30° C. The reactions were quenched with 100 μL of 0.75% phosphoric acid and then transferred to and filtered through a phosphor cellulose filter plate (Millipore). After washing each well five times with 0.75% phosphoric acid, the plate was dried under vacuum for 5 min and, following the addition of 15 μL of scintillation fluid to each well, the residual radioactivity was measured using a Wallac […]. The IC50 values were derived from eight concentrations of test inhibitors.

For the next experiment, the system named is HCT116 (colon). Nature of the experiment: In vitro cytotoxic activity assay (MTT), HCT116. Type of experiment: cell-based. As to conditions: Homo sapiens, HCT-116; HCT116 cells, exposed for 96 hours; read-out: IC50, 50% inhibition of cell proliferation, HCT116 (colon). How it is done: as §1
The test system of another experiment is MDA-MB-231 (breast). Nature of the experiment: In vitro cytotoxic activity assay (MTT), MDA-MB-231. Type of experiment: cell-based. As to conditions: Homo sapiens; MDA-MB-231 cells, exposed for 96 hours; read-out: IC50, 50% inhibition of cell proliferation, MDA-MB-231 (breast). The method, then: as §1

In the case of `O=C(O)c1ccc2c(c1)nc(Nc1cccc(Cl)c1)c1cc(C(=O)O)[nH]c12` [Compound 1, 4-((3-chlorophenyl)amino)-1H-pyrrolo[3,2-c]quinoline-2,7-dicarboxylic acid], the IC50 was 1.3 µM in the experiment with MIAPaCa-2 (pancreas); 1.6 µM in the experiment with H1299 (lung); 2.2 µM with A375 (melanoma); 1.8 µM in the experiment on PC3 (prostate); 4.4 µM with MCF7 (breast); 2.9 µM with HL60 (leukemia). Further, the IC50 in [1] came to 0.037 µM; in the experiment with HCT116 (colon), 1.9 µM; with MDA-MB-231 (breast), 3.5 µM.
